Measurements as given in patent US20080269193A1, “Tetrahydroindole and Tetrahydroindazole Derivatives” (priority 2007, published 2008).

Legend:
[1] = Aqueous solubility; assay type: physicochemical; settings: water; mono hydrochloride salt
[2] = tested on: PC-3 cell line; assay: PC-3 cell proliferation assay; assay type: cell-based; settings: for IC50: Homo sapiens, PC-3 cells, read-out: inhibitory activity against PC-3 cell proliferation (IC50 range)
Protocol: (§1) A panel of cancer cell lines was obtained from the DCTP Tumor Repository, National Cancer Institute (Frederick, Md.) or ATCC (Rockville, Md.). Cell cultures were maintained in Hyclone RPMI 1640 medium (Logan, Utah) supplemented with 10% fetal bovine serum and 20 mM HEPES buffer, final pH 7.2, at 37° C. with a 5% CO2 atmosphere. Cultures were maintained at sub-confluent densities. Human umbilical vein endothelial cells (HUVEC) were purchased from Clonetics, a division of Cambrex (Walkersville, Md.). Cultures were established from cryopreserved stocks using Clonetics EGM-2 medium supplemented with 20 mM HEPES, final pH 7.2, at 37° C. with a 5% CO2 atmosphere.
(§2) For proliferation assays, cells were seeded with the appropriate medium into 96 well plates at 1,000-2,500 cells per well, depending on the cell line, and were incubated overnight. The following day, test compound, DMSO solution (negative control), or Actinomycin D (positive control) was added to the appropriate wells as 10× concentrated stocks prepared in phosphate buffered saline. The cell plates were then incubated for an additional 2-5 days, depending on the cell line, to allow proliferation to occur. To measure cell density, 50 μL of WST-1 solution (Roche Applied Science, Ind.) diluted 1:5 in phosphate buffered saline was added to each well, and the cells incubated for an additional 1-5 hrs., again depending on the cell line. Optical density was determined for each well at […] using a Tecan GeniosPro plate reader (RTP, NC). The percentage of cell growth was determined by comparing the cell growth in the presence of test compounds to the cells treated with DMSO vehicle (control, 100% growth) and cells treated with Actinomycin D (10 μM, 0% growth).
Immediately after the WST-1 determination, the medium was removed from the PC-3, NCI-H460 and HUVEC cell lines, and the plates stored at −80° C. Using these assay plates, relative amounts of DNA in each well were determined using the Cyquant DNA assay kit from […] (Eugene, Oreg.) following the manufacturer's directions. Results for each compound treatment were compared to DMSO vehicle control (100%) and 10 μM Actinomycin D treated cells (0%).

[3] = tested on: HSP-90 (heat shock protein 90); assay: Determination of affinity for HSP-90 (purine affinity column elution); assay type: binding; set-up: key: +++: very high; ++: high; +: moderate; settings: elution from purine affinity column
Protocol: Affinity of test compounds for HSP-90 was determined as follows: Protein mixtures obtained from a variety of organ tissues (for example: spleen, liver and lung) were reversibly bound to a purine affinity column to capture purine-binding proteins, especially HSP-90. The purine affinity column was washed several times, and then eluted with 20 μM, 100 μM, and 500 μM of test compound. Compounds of Formula I elute HP-90 in a dose-dependent manner vs. a control elution using dimethylsulfoxide. The elution profile of Formula I compounds was determined by 1-dimensional SDS polyacrylamide gel electrophoresis. Gels were stained with a fluorescent stain such as sypro ruby (a highly sensitive fluorescent protein stain that can readily detect less than 1 fmol of total protein, i.e., less than 0.04 ng for a 40 kDa protein) or silver nitrate. The gels were imaged using a standard flat bed gel imager and the amount of protein estimated by densitometry. The percent of HSP-90 protein eluted from the column at each concentration was determined and IC50 values were calculated from these estimates.

[4] = tested on: MES-SA/Dx5 (MDR+) cell line; assay: Potency against multi-drug resistant cell line; assay type: cell-based; settings: vs non-fluorinated parent analog
Protocol: as §1
as §2, with “The cell plates were then incubated for an additional 2-5 days, depending on the cell line, to allow proliferation to occur. To measure cell density, 50 μL of WST-1 solution (Roche Applied Science, Ind.) diluted 1:5 in phosphate buffered saline was added to each well, and the cells incubated for an additional 1-5 hrs., again depending on the cell line.” left out

[5] = tested on: NCl/ADR-RES cell line; assay: Potency against adriamycin-resistant breast cancer cell line; assay type: cell-based, human; settings: vs non-fluorinated parent analog
Protocol: as §1
as §2, with “The cell plates were then incubated for an additional 2-5 days, depending on the cell line, to allow proliferation to occur. To measure cell density, 50 μL of WST-1 solution (Roche Applied Science, Ind.) diluted 1:5 in phosphate buffered saline was added to each well, and the cells incubated for an additional 1-5 hrs., again depending on the cell line.” left out

[6] = Oral bioavailability in rat; settings: in vivo, 10 mg/kg over 24 hours, read-out: oral bioavailability (F)

IC50 [2] [nM] | relative binding affinity to HSP-90 [3] | SMILES | also measured
– | – | C#CCN1CCC[C@H](Nc2cc(-n3nc(C(F)(F)F)c4c3CC(C)(C)CC4=O)ccc2C(N)=O)C1 [Example 121, (S)-4-(6,6-dimethyl-4-oxo-3-(trifluoromethyl)-4,5,6,7-tetrahydro-1H-indazol-1-yl)-2-(1-(prop-2-ynyl)piperidin-3-ylamino)benzamide] | solubility [1]: > 10000 µg/mL
< 500 | +++ | CCc1nn(-c2cc(F)c(C(N)=O)c(NC3CC=CC3)c2)c2c1C(=O)CC(C)(C)C2 [Example 89, 2-(cyclopent-3-enylamino)-4-(3-ethyl-6,6-dimethyl-4-oxo-4,5,6,7-tetrahydro-1H-indazol-1-yl)-6-fluorobenzamide] | –
– | – | C#CCN1CCC(Nc2cc(-n3nc(C(F)F)c4c3CC(C)(C)CC4=O)ccc2C(N)=O)CC1 [Example 106, 4-(3-(difluoromethyl)-6,6-dimethyl-4-oxo-4,5,6,7-tetrahydro-1H-indazol-1-yl)-2-(1-(prop-2-ynyl)piperidin-4-ylamino)benzamide] | inhibition of PC-3 cell line growth, times more ([2]; vs compounds lacking a basic nitrogen or amino group at R6): 5-10 times
– | – | CC1(C)CC(=O)c2c(C(F)(F)F)nn(-c3ccc(C(N)=O)c(N[C@H]4CCCC[C@@H]4O)c3)c2C1 [Example 172, 4-(6,6-dimethyl-4-oxo-3-(trifluoromethyl)-4,5,6,7-tetrahydro-1H-indazol-1-yl)-2-((1S,2S)-2-hydroxycyclohexylamino)benzamide] | times more potent in PC-3 cell line ([2]; vs cyclohexyl analogs not substituted with an oxygen atom): 20-50 times
< 500 | +++ | CCc1nn(-c2ccc(C(N)=O)c(N[C@H]3CCC[C@@H]3O)c2)c2c1C(=O)CC(C)(C)C2 [Example 180, 4-(3-ethyl-6,6-dimethyl-4-oxo-4,5,6,7-tetrahydro-1H-indazol-1-yl)-2-((1S,2S)-2-hydroxycyclopentylamino)benzamide] | –
500 to 5000 | +++ | C[C@H](O)CNc1cc(-n2nc(C(F)(F)F)c3c2CC(C)(C)CC3=O)ccc1C(N)=O [Example 165, (S)-4-(6,6-dimethyl-4-oxo-3-(trifluoromethyl)-4,5,6,7-tetrahydro-1H-indazol-1-yl)-2-(2-hydroxypropylamino)benzamide] | –
< 500 | +++ | CC(C)(C)CN[C@H]1CC[C@H](Nc2cc(-n3nc(C(F)(F)F)c4c3CC(C)(C)CC4=O)ccc2C(N)=O)CC1 [Example 140, 4-(6,6-dimethyl-4-oxo-3-(trifluoromethyl)-4,5,6,7-tetrahydro-1H-indazol-1-yl)-2-(trans-4-(neopentylamino)cyclohexylamino)benzamide] | –
< 500 | +++ | CCc1nn(-c2cc(F)c(C(N)=O)c(NCC(OC)OC)c2)c2c1C(=O)CC(C)(C)C2 [Example 97, 2-(2,2-dimethoxyethylamino)-4-(3-ethyl-6,6-dimethyl-4-oxo-4,5,6,7-tetrahydro-1H-indazol-1-yl)-6-fluorobenzamide] | –
– | – | CC1(C)CC(=O)c2c(CC3CC3)nn(-c3cc(F)c(C(N)=O)c(NC4CCOCC4)c3)c2C1 [Example 48, 4-(3-(cyclopropylmethyl)-6,6-dimethyl-4-oxo-4,5,6,7-tetrahydro-1H-indazol-1-yl)-2-fluoro-6-(tetrahydro-2H-pyran-4-ylamino)benzamide] | times more potent against MES-SA/Dx5 (MDR+) cell line [4]: 4-6 times; times more potent against NCl/ADR-RES cell line [5]: 3-10 times
< 500 | +++ | CCc1nn(-c2ccc(C(N)=O)c(N[C@H]3CC[C@H](O)CC3)c2F)c2c1C(=O)CC(C)(C)C2 [Example 51, 4-(3-ethyl-6,6-dimethyl-4-oxo-4,5,6,7-tetrahydro-1H-indazol-1-yl)-3-fluoro-2-(trans-4-hydroxycyclohexylamino)benzamide] | –
– | – | CC1(C)CC(=O)c2c(C(F)(F)F)nn(-c3ccc(C(N)=O)c(NCCO)c3)c2C1 [Example 150, 4-(6,6-dimethyl-4-oxo-3-(trifluoromethyl)-4,5,6,7-tetrahydro-1H-indazol-1-yl)-2-(2-hydroxyethylamino)benzamide] | times more potent in PC-3 cell line ([2]; vs alkyl analogs without oxygen): 10-30 times
< 500 | +++ | CC1(C)CC(=O)c2c(C(F)(F)F)nn(-c3ccc(C(N)=O)c(N[C@@H]4CCCC[C@H]4N)c3)c2C1 [Example 119, 2-((1R,2R)-2-aminocyclohexylamino)-4-(6,6-dimethyl-4-oxo-3-(trifluoromethyl)-4,5,6,7-tetrahydro-1H-indazol-1-yl)benzamide] | –
500 to 5000 | – | CC1(C)CC(=O)c2c(C(F)(F)F)nn(-c3ccc(C(N)=O)c(NCCSc4ncccn4)c3)c2C1 [Example 124, 4-(6,6-dimethyl-4-oxo-3-(trifluoromethyl)-4,5,6,7-tetrahydro-1H-indazol-1-yl)-2-(2-(pyrimidin-2-ylthio)ethylamino)benzamide] | –
– | – | Cc1nn(-c2ccc(C(N)=O)c(N[C@H]3CCOC3)c2)c2c1C(=O)CC(C)(C)C2 [Example 181, (S)-2-(tetrahydrofuran-3-ylamino)-4-(3,6,6-trimethyl-4-oxo-4,5,6,7-tetrahydro-1H-indazol-1-yl)benzamide] | times more active in PC-3 cell line ([2]; vs non-oxygen containing cyclopentyl analogs): 20-50 times
– | – | CC1(C)CC(=O)c2c(C(F)(F)F)nn(-c3ccc(C(N)=O)c(NC4CCC4)c3)c2C1 [Example 148, 2-(cyclobutylamino)-4-(6,6-dimethyl-4-oxo-3-(trifluoromethyl)-4,5,6,7-tetrahydro-1H-indazol-1-yl)benzamide] | times more active in PC-3 cell line ([2]; vs open chain butyl or alkyl analogs containing no oxygen): 20-100 times
< 500 | +++ | CC1(C)CC(=O)c2c(CC3CC3)nn(-c3ccc(C(N)=O)c(NC4CCOCC4)c3)c2C1 [Example 157, 4-(3-(cyclopropylmethyl)-6,6-dimethyl-4-oxo-4,5,6,7-tetrahydro-1H-indazol-1-yl)-2-(tetrahydro-2H-pyran-4-ylamino)benzamide] | –
5000 to 50000 | ++ | CCc1nn(-c2ccc(C(N)=O)c3[nH]c(C)nc23)c2c1C(=O)CC(C)(C)C2 [Example 186, 4-(3-ethyl-6,6-dimethyl-4-oxo-4,5,6,7-tetrahydro-1H-indazol-1-yl)-2-methyl-1H-benzo[d]imidazole-7-carboxamide] | –
– | – | Cc1nn(-c2cc(F)c(C(N)=O)c(NC3CCOCC3)c2)c2c1C(=O)CC(C)(C)C2 [Example 50, 2-fluoro-6-(tetrahydro-2H-pyran-4-ylamino)-4-(3,6,6-trimethyl-4-oxo-4,5,6,7-tetrahydro-1H-indazol-1-yl)benzamide] | bioavailability [6]: > 40%
